Consider one molecule from patent US20110172163A1, “Novel Protease Inhibitors” (QUEENSLAND UNIVERSITY OF TECHNOLOGY, priority 2008, published 2011).

The subject of one test is iKLK4. The test is described as follows: KLK4 stimulated calcium release in LMF stably expressing human PAR-2. The format is cell-based. The method, then: (§1) Lung murine fibroblasts (LMF) from Par-1 null mice stably expressing human PAR-2 were grown to 80% confluence as previously described, washed with PBS, detached nonenzymatically, resuspended (4×10^6 cells/ml) in extracellular medium (121 mM NaCl, 5.4 mM KCl, 0.8 mM MgCl2, 1.8 mM CaCl2, 5.5 mM glucose, 25 mM HEPES (pH 7.4)) containing 0.2% (w/v) bovine serum albumin (Sigma) and then loaded with the fluorescence indicator Fura-2 acetoxymethyl ester (1.0 μM; Invitrogen) at room temperature for 60 min. Cells were then pelleted followed by resuspension in extracellular medium (without bovine serum albumin) at a concentration of 2×10^6 cells/ml for fluorescence measurements. The ratio of fluorescence at 510 nm after excitation at 340 and 380 nm was monitored (Polarstar Optima fluorescent plate reader) during treatment with bovine β trypsin (Sigma Chemicals), PAR-2 activating peptide SLIGKV (AusPep) and iKLK4 with or without SFTI-FCQR.

Another test has as its target KLK2 (Homo sapiens, UniProt P20151). Briefly: Protein proteolysis: fibrinogen digestion by KLK2. The format is biochemical. To be noted: up to a concentration of 2 μM.
The target of another test is T1, bovine plasminogen (Bos taurus, UniProt P06868).
T1 construct: purchased Sigma Chemicals; host or cells: bovine plasma
The test is described as follows: Inhibitor kinetics: plasminogen amidolytic activity. Format: biochemical. To be noted: substrate L-pNA, BAPNA (0.2 mM). The method, then:
(§2) All enzymes and substrates were obtained from Sigma Chemicals if not otherwise specified. […] The release of pNa moiety was monitored as described above for 7 minutes with each point being the average of three independent triplicate reactions. IC50 was determined using the Prism 5 software suite (GraphPad software Inc.).

A further test addresses T2, bovine α-chymotrypsin (Bos taurus, UniProt P00766).
T2 construct: purchased Sigma Chemicals
Briefly: Inhibitor kinetics: α-chymotrypsin amidolytic activity. To be noted: substrate W-pNA (0.2 mM). The format is biochemical. The method, then: as §2

The test system of test [1] is LNCaP prostate cancer cells. Briefly: Primary tumour growth of LNCaP cells in nude mice (luciferase imaging). The format is in vivo. To be noted: 3×i.v. doses of 0.2 mg/kg, when tumour specific growth rate was less than 2%/day. The method, then: Nude mice were injected with 1.5×10^6 LNCaP prostate cancer cells stably expressing an exogenous luciferase reporter gene and imaged over a period of 56 days. Tumour growth was measured by injecting mice with […] (a luminescent substrate for luciferase) and the resulting light emissions were quantified using a xenogen in vivo imaging system.

The subject of the next test is human PAR-2. The test is described as follows: PAR-2 activating peptide stimulated calcium release in LMF stably expressing human PAR-2. The format is cell-based. The method, then:
as §1

Another test addresses KLK5 (Homo sapiens, UniProt Q9Y337). Briefly: Inhibitor kinetics: KLK5 amidolytic activity. To be noted: substrate Bz-PFR-pNA (0.2 mM). The format is biochemical.
For another test, the target named is T3, bovine β-trypsin (Bos taurus, UniProt P00760).
T3 construct: bovine β-trypsin (20 ng); purchased Sigma Chemicals
T3 sequence (P00760 24-246): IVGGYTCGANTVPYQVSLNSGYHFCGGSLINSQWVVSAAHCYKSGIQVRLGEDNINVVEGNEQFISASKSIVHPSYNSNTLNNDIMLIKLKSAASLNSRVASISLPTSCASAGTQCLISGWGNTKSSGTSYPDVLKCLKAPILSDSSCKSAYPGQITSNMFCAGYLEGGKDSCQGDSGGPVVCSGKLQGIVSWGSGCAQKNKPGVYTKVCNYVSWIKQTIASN
Briefly: Inhibitor kinetics: trypsin amidolytic activity. The format is biochemical. To be noted: trypsin; read-out: IC50. On the procedure: as §2

The target of the next test is T4, iKLK14 (Homo sapiens, UniProt Q9P0G3).
T4 construct: made in house
Briefly: Inhibitor kinetics: KLK14 amidolytic activity. The format is biochemical.

The target in a further test is KLK12 (Homo sapiens, UniProt Q9UKR0). The test is described as follows: Protein proteolysis: fibrinogen digestion by KLK12. Format: biochemical. To be noted: up to a concentration of 2 μM.
The next test deals with T5, bovine thrombin (Bos taurus, UniProt P00735).
T5 construct: purchased Sigma Chemicals
Briefly: Inhibitor kinetics: thrombin amidolytic activity. Format: biochemical. To be noted: substrate Bz-FVR-pNA (0.2 mM). On the procedure: as §2

Another test concerns bovine β trypsin. Briefly: Trypsin stimulated calcium release in LMF stably expressing human PAR-2. Format: cell-based. To be noted: 1 μM SFTI-FCQR, trypsin 10 nM. On the procedure: as §1
The target of a further test is T6, human matriptase (Homo sapiens, UniProt Q9Y5Y6).
T6 construct: purchased R&D Systems
T6 sequence (Q9Y5Y6 615-855 limits assumed): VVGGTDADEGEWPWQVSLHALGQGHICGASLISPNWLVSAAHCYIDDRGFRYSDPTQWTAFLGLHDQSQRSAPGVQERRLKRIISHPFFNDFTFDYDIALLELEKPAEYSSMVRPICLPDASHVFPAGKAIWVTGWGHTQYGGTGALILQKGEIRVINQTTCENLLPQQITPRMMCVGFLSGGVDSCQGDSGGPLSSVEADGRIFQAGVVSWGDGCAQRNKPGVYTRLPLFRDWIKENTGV
The test is described as follows: Inhibitor kinetics: matriptase amidolytic activity. Format: biochemical. To be noted: substrate Bz-FVR-pNA (0.2 mM). On the procedure: as §2

In the next test the target is KLK4 (Homo sapiens, UniProt Q9Y5K2). The test is described as follows: Protein proteolysis: fibrinogen digestion by KLK4 (SDS-PAGE). The arrangement: pro-region of PSA (KLK3), replacing the native KLK4 pro-region (only if the E. coli preparation was used) (N, cleaved yes); made in house. To be noted: 2.5 nM KLK4, SDS-PAGE. The format is biochemical. The method, then: Fibrinogen was solubilised in assay buffer to a final concentration of 1 mg/ml and digested with KLK4 (+/−inhibitor) over a period of 90 minutes at 37° C. Typically assays consisted of 5 μM protein substrate and 2.5 nM KLK4 protein or 1 nM trypsin made up to a final volume of 8 μl with assay buffer. Proteolysis was initiated by addition of KLK4 and terminated by addition of SDS PAGE sample buffer and heat denaturation at 100° C. for 5 minutes. Hydrolysis products were resolved on 10% SDS PAGE gels and compared with incubations terminated immediately after initiation (time 0), and substrate proteins incubated in assay buffer for 90 minutes in the absence of KLK4 or 4-16 mins with trypsin.

Structures are written as SMILES. Entries after “also recorded” stand apart in the source; their conditions may differ. Like-named read-outs stand apart in the source and are kept apart here. Bridge positions count the residues as written; N and C are the ends. Peptide text beside a SMILES is read from it.

For orientation: IC50 means the point on the concentration scale where inhibition reaches its midpoint.

T1 sequence (P06868 27-812 limits assumed): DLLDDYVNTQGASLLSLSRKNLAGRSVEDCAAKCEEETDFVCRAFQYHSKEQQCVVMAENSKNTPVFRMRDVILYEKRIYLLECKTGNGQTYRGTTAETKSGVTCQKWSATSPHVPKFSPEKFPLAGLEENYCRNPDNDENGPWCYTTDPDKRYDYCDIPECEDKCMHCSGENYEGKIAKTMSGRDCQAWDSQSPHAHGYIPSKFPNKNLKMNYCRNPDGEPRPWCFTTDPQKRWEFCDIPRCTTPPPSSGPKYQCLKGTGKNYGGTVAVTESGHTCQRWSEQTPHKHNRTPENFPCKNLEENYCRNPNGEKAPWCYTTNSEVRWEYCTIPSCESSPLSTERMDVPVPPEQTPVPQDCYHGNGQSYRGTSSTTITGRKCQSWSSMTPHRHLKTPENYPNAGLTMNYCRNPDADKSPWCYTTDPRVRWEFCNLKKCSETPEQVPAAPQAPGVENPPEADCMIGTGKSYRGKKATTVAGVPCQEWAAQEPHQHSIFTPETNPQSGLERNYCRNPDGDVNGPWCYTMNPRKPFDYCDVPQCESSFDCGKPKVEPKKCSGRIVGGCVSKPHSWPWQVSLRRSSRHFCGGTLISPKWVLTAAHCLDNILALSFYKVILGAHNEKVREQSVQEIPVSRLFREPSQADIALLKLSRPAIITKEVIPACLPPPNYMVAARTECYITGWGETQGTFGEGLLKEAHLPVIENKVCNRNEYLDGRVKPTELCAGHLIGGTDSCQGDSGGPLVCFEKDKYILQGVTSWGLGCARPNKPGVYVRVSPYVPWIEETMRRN
KLK5, sequence (Q9Y337 23-293): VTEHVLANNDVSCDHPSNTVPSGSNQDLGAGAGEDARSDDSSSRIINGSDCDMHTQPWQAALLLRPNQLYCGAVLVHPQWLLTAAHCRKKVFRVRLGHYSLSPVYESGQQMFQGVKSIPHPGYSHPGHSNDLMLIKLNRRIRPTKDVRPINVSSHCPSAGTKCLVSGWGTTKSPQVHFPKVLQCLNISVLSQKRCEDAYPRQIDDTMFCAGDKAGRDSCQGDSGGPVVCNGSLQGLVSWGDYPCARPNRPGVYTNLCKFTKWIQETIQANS
KLK12, sequence (Q9UKR0 18-248): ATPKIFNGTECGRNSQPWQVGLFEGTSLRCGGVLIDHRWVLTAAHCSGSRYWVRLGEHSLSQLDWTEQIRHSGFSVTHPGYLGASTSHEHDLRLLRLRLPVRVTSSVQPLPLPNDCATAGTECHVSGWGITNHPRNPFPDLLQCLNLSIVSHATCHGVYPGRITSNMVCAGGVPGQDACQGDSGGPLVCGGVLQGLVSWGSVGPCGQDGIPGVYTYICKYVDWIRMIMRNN
KLK2, sequence (P20151 25-261): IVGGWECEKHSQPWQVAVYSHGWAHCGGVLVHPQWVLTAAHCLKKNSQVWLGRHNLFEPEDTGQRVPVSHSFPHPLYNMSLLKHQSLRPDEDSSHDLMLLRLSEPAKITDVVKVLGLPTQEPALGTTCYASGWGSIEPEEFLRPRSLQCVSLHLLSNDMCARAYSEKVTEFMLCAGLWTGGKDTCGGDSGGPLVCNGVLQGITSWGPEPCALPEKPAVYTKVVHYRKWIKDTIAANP
T4 sequence (Q9P0G3 41-267): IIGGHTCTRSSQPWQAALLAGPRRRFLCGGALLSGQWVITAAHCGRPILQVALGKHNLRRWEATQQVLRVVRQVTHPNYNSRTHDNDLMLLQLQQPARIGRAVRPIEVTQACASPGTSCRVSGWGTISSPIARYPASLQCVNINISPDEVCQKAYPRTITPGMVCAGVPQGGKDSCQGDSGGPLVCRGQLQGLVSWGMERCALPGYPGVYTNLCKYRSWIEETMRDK
KLK4, sequence (Q9Y5K2 31-254): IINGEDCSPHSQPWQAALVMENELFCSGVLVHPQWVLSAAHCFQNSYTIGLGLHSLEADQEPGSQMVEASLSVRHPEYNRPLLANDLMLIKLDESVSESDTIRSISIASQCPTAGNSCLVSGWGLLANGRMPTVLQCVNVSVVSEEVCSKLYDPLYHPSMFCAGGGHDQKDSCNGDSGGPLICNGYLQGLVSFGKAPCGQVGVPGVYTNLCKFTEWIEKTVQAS

Regarding `CC[C@H](C)[C@@H]1NC(=O)[C@@H]2CCCN2C(=O)[C@@H]2CCCN2C(=O)[C@H]([C@@H](C)CC)NC(=O)[C@H](CO)NC(=O)[C@H](CCCNC(=N)N)NC(=O)[C@H](CCC(N)=O)NC(=O)[C@@H]2CSSC[C@H](NC1=O)C(=O)N[C@@H](Cc1ccccc1)C(=O)N1CCC[C@H]1C(=O)N[C@@H](CC(=O)O)C(=O)NCC(=O)N[C@@H](Cc1ccccc1)C(=O)N2` [SFTI-FCQR] (cyclo(GFCQRSIPPICFPD); disulfide 3-11), in the test on iKLK4 (1 μM SFTI-FCQR, iKLK4 300 nM), the “effect on KLK4 stimulated calcium release” value is “extremely robust blockade of calcium release”. Also, in the test with iKLK4 (at a concentration of 1 mM (as printed in discussion)), the “inhibition of KLK4 stimulated calcium flux” value was “complete inhibition”. Moreover, the “inhibition of KLK2 digestion of fibrinogen” value on KLK2 is reported as “no inhibition”. Further, the half-inhibitory concentration (IC50) entry against bovine plasminogen was “did not inhibit”; on bovine plasminogen (read-out: IC50), more than 10 µM; against bovine α-chymotrypsin, “did not inhibit”; on bovine α-chymotrypsin (read-out: IC50) it was more than 10 µM; against KLK5, 2.35 ± 0.721 µM; at bovine β-trypsin, 4.06 ± 1.09 µM. Moreover, the 50% inhibitory concentration (IC50) on iKLK14 was 1.51 ± 0.0371 µM; on bovine thrombin it was “did not inhibit”; at bovine thrombin (read-out: IC50), more than 10 µM; at human matriptase it was “did not inhibit”; on human matriptase (read-out: IC50), more than 10 µM. The “tumour growth rate in comparison to control” value in test [1] was “arrested tumour growth rate”. The “effect on calcium release by PAR-2 activating peptide” value in the test with human PAR-2 (1 μM SFTI-FCQR, PAR-2 activating peptide 100 nM) is given as “permissive for calcium release; also recorded: no effect”. Moreover, the “effect on intracellular Ca^2+ of inhibitor alone” value with human PAR-2 (SFTI-FCQR 1 μM without agonist) is on record as “no effect”. Moreover, the “inhibition of KLK12 digestion of fibrinogen” value at KLK12 was “no inhibition”. In the test on bovine β trypsin, the “effect on trypsin stimulated calcium release” value is recorded as “permissive for calcium release; also recorded: no effect; also recorded: increased intracellular Ca^2+ ion concentration”. Further, on KLK4, the “concentration giving complete inhibition of fibrinogen proteolysis by KLK4” value is 250 nM.
